From patent publication US6060475A, “Substituted pyrazin-2-yl-sulphonamide-(3-pyridyl) compounds and uses thereof” (Zeneca Limited, priority 1995, dated 2000)

Assays:
[1] = tested on: Human ETA or ETB receptors; experiment: Test A: inhibition of [125I]-Endothelin-1 binding to MEL cell membranes expressing recombinant receptor; details: receptor sub-type (ETA or ETB) not given
Text: Test A: The endothelin receptor antagonist activity of compounds of formula I may be assessed in vitro by their ability to inhibit binding of [^125 I]-Endothelin-1 to its receptors. Human ETA or ETB receptors (sub-types of the endothelin receptor) were expressed in Mouse Erythroleukemic Cells (MEL cells) by using standard molecular techniques (for example, as described by Sambrook J., Fritsch E. F. & Maniatis T. (1989) Molecular Cloning: A Laboratory Manual, 2nd Edition, Cold Spring Harbor Press, USA). cDNA sequences encoding the human ETA and ETB receptor (Hosoda K. et al (1991), FEBS Lett., 287, 23-26 and Sakamoto A. et al, (1991), Biochem. Biophys Res. Comm., 178, 656-663) are subcloned into pBluescript vector followed by insertion into the MEL cell expression vector pEV as described by Needham et al (1992), Nuc. Acids Res., 20, 997-1003. […]
[^125 I]-Endothelin-1 binding to MEL cell membranes was measured in incubation buffer containing 50 mM Tris HCl 1 mM CaCl2, 0.05% polyoxyethylenesorbitan monolaurate, 0.1% Bovine Serum Albumin (BSA), 0.02% sodium azide pH 7.4 at 30° C. after 180 minutes incubation. […] Nonspecific binding was measured in the presence of 100 nM unlabelled Endothelin-1. […] The filter discs were punched out and counted in a gamma counter. Compounds are tested in triplicate over a range of concentrations and IC50 (or pIC50) values calculated.

[2] = tested on: pressor response induced by intravenously-administered proendothelin-1; experiment: Test D: antagonism of pressor response to intravenous proendothelin-1 in conscious rat after oral dosing; type: in vivo; details: rats, dosed orally at 3 mg/kg, determined one hour after administration, n=5, 30 mmHg change level
Text: Test D: This in vivo test involves the measurement of the antagonist effect of the test compound against the pressor response induced by intravenously-administered proendothelin-1 in a conscious rat preparation.
Male rats (260-290 g) are anaesthetised with Saffan administered via the tail vein. The right jugular vein and carotid artery are isolated and catheters filled with heparin implanted. These are exteriorised at the back of the neck using a metal trochar and the neck incision closed with autoclips. Rats are housed individually with free access to food and water during the recovery phase. Later in the day, food is removed and the rats are fasted overnight with free access to water. The following day the rats are placed in perspex restraining tubes and the arterial catheter drained and connected to a pressure transducer for measurement of mean arterial pressure. Following a ten minute stabilization period, proendothelin-1 (usually 0.3-1.0 nmol kg^-1) is administered cumulatively until a pressor response of 30 mmHg is achieved. The animals are then returned to their cages and allowed to recover for 2 hours. The test compound is administered orally (by gavage) at a known time point during the recovery period. […] Endothelin receptor antagonism is quantified by calculating dose ratio shifts at the 30 mmHg change level.

COc1nc(C)cnc1NS(=O)(=O)c1cccnc1-c1ccc(OC(C)C)cc1 [Example 3, 2-(4-isopropoxyphenyl)-N-(3-methoxy-5-methylpyrazin-2-yl)pyridine-3-sulphonamide]
pIC50 in Test A [1]: 8.6
mean dose ratio shift on the pressor response to proendothelin-1 [2]: 2.93
